These results are taken from BindingDB's records for doi:10.1110/ps.0229303 (Gsk, 2003).

Each structure is given as a SMILES string.

Holding throughout (test): PDF Inhibition Assay
Holding throughout (settings): pH 7.6; 25 °C

The target in experiment [1] is T1, Peptide deformylase (Haemophilus influenzae (strain ATCC 51907 / DSM 11121 / KW20 / Rd), UniProt P44786).
T1 sequence (P44786 whole entry): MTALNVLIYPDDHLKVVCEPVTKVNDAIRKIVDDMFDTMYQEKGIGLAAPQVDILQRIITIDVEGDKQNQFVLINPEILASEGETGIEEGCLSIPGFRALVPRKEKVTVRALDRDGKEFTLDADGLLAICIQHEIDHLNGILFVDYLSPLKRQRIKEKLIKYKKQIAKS
Here is the method:
(§1) Enzyme assay was carried out in 96-well microtiter plates with a SpectraMax plate reader (Molecular Devices Corp.). PDF activity was measured using a continuous enzyme-linked assay. The reaction was triggered with the addition of PDF enzyme, and absorbance was monitored for 15 min at 340 nm. […] A standard curve with NADH concentrations ranging from 0 to 1 mM was performed. The velocities obtained in mOD340 nm per minute were then converted to micromolar NADH produced per second to calculate Vmax. To determine IC50s, PDF activity was measured in the presence of increasing concentrations of the inhibitor in the presence of substrate concentration corresponding to Km values. All data fitting was carried out with nonlinear least squares regression using the commercial software package Graphit.

The target of experiment [2] is T2, Peptide deformylase (Staphylococcus aureus (strain Mu50 / ATCC 700699), UniProt P68825).
T2 sequence (P68825 whole entry): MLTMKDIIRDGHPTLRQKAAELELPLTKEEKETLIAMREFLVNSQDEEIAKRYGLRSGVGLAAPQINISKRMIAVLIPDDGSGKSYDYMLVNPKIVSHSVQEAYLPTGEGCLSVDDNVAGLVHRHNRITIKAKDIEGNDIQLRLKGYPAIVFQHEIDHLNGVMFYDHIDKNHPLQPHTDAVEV
The procedure: as §1

Experiment [3] has as its target T3, Peptide deformylase (Streptococcus pneumoniae (strain ATCC BAA-255 / R6), UniProt Q8DP79).
T3 sequence (Q8DP79 whole entry): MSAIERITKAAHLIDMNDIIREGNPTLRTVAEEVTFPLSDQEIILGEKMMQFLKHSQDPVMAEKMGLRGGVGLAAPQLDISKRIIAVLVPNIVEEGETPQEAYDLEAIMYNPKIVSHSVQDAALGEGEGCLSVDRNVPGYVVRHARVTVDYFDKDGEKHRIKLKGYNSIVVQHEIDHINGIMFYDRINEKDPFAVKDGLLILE
The procedure:
as §1

In experiment [4] the target is T4, Peptide deformylase (Escherichia coli (strain K12), UniProt P0A6K3).
T4 sequence (P0A6K3 whole entry): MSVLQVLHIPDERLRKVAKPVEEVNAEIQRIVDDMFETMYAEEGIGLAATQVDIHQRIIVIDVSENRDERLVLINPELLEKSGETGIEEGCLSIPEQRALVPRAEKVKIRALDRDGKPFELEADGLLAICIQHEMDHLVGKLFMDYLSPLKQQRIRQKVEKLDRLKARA
The procedure: as §1

The IC50 is the concentration that gives 50% inhibition. As for `O=CN(O)CCOc1cccc(C(=O)c2ccccc2)c1` [N-[2-(3-benzoylphenoxy)ethyl]-N-hydroxyformamide], the IC50 against Peptide deformylase [1] was 320 nM.

As to `O=CN(O)CCCc1ccccc1` [N-hydroxy-N-(3-phenylpropyl)formamide], the IC50 was 250 nM on Peptide deformylase [2], 400 nM at Peptide deformylase [3], 160 nM against Peptide deformylase [4] and 150 nM against Peptide deformylase [1].

The compound `Cc1cccc(CCCN(O)C=O)n1` [N-hydroxy-N-[3-(6-methylpyridin-2-yl)propyl]formamide] showed an IC50 at Peptide deformylase [1] of 1040 nM. This lies in the single-digit micromolar range.
